Consider 20 compounds from US9187472B2 (AbbVie Inc., priority 2012, dated 2015).

Molecules are shown by their SMILES.

Assay [1] deals with NAMPT (human, recombinant, C-terminally His-tagged) (Homo sapiens, UniProt P43490). Briefly: Time-Resolved Fluorescence Resonance Energy Transfer (TR-FRET) Binding Assay of NAMPT. As to conditions: without substrates; 6.8 nM NAMPT, 200 nM probe, 3 hours equilibration. In outline:
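Compounds, diluted in half-log steps, are mixed with enzyme (6.8 nM), fluorescent probe (200 nM) and Tb-anti-His antibody (1 nM) in pH 7.5 HEPES buffer containing 10 mM MgCl2 and 1 mM DTT. Plates equilibrate 3 h at room temperature; normalized FRET ratios are fitted by four-parameter logistic regression for IC50.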
On the technique in general: TR-FRET usually uses a lanthanide donor and a delayed reading to cut background.

Another assay deals with NAMPT (Homo sapiens, UniProt P43490). Briefly: TR-FRET Binding Assay of NAMPT with PRPP. Conditions: with 200 μM PRPP and 2.5 mM ATP; 2 nM NAMPT, 2 nM probe, 16 hours equilibration. In outline: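 Compounds were mixed with 2 nM His-tagged NAMPT, 2 nM probe, 1 nM terbium anti-His antibody, 200 μM PRPP and 2.5 mM ATP in assay buffer with 2% DMSO, then left 16 hours to permit possible enzymatic processing of compounds before time-resolved FRET was measured.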

In another assay the test system is PC3 cells. Briefly: NAMPT Cell Proliferation Assay. The assay is classed as cell-based. Conditions: Homo sapiens, PC-3, 120 h, 5 days incubation, cell viability by Cell Titer Glo. In outline: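 IC50 values derive from sigmoidal dose-response fits of percent inhibition of PC3 viability, measured by luminescence after 5 days of compound treatment. Cells (500/well, RPMI containing 10% heat-inactivated FBS) are allowed to attach overnight, and compounds are tested at 10-fold dilutions between 10 μM and 1×10^−5 μM.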
(In general: In ATP-based viability assays light output follows the ATP content of the culture.)

Chain of NAMPT (P43490 whole entry): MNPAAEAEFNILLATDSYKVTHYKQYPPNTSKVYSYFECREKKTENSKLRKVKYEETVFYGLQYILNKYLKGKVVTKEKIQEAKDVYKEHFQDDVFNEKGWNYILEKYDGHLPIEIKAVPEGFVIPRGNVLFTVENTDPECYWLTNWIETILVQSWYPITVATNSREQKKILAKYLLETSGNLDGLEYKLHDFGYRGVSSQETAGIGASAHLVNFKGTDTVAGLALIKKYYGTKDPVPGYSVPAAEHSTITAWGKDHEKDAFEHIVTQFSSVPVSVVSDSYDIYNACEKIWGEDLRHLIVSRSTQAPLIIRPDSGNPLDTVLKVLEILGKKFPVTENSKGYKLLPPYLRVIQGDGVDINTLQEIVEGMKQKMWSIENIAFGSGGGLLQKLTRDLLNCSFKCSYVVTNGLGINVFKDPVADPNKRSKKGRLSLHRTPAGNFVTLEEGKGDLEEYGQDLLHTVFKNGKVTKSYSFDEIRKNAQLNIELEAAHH
Chain of NAMPT (human, recombinant, C-terminally His-tagged) (P43490 whole entry): as above

A word on the IC50: it is the concentration at which inhibition is half-maximal. For the compound `O=C(CC(F)(F)F)NC1(c2ccc(C(=O)NCc3ccn4ccnc4c3)s2)CCC1` [Example 472, N-(imidazo[1,2-a]pyridin-7-ylmethyl)-5-{1-[(3,3,3-trifluoropropanoyl)amino]cyclobutyl}thiophene-2-carboxamide], the half-inhibitory concentration (IC50) in assay [1] was determined as 2860 nM; at NAMPT it was 0.334 nM; in the assay on PC3 cells, 963 nM.
Regarding `O=C(NCc1ccn2ccnc2c1)c1ccc(C2(NC(=O)C3CCOCC3)CCC2)s1` [Example 473, N-(1-{5-[(imidazo[1,2-a]pyridin-7-ylmethyl)carbamoyl]thiophen-2-yl}cyclobutyl)tetrahydro-2H-pyran-4-carboxamide], the half-maximal inhibitory concentration (IC50) in assay [1] was > 10000 nM; on NAMPT it was 1.01 nM; in the assay on PC3 cells it was 7850 nM.
Take `CC(C)(C)OC(=O)N1CC(Oc2ccc(C(=O)NCc3ccn4ccnc4c3)cc2)C1` [Example 474, tert-butyl 3-{4-[(imidazo[1,2-a]pyridin-7-ylmethyl)carbamoyl]phenoxyl}azetidine-1-carboxylate]: the IC50 in assay [1] is 1980 nM; on NAMPT, 0.362 nM; in the assay on PC3 cells it was 879 nM.
With `O=C(NCc1ccn2ccnc2c1)c1ccc(-c2cnn(CC3CCC3)c2)s1` [Example 475, 5-[1-(cyclobutylmethyl)-1H-pyrazol-4-yl]-N-(imidazo[1,2-a]pyridin-7-ylmethyl)thiophene-2-carboxamide], the results for the IC50 (in assay [1]; on NAMPT; in the assay with PC3 cells) were 9.76 nM, 0.169 nM and 6.92 nM, respectively.
As for `O=C(NCc1ccn2ccnc2c1)c1ccc(-c2cnn(CC3CCCO3)c2)o1` (stereo not drawn) [Example 476, N-(imidazo[1,2-a]pyridin-7-ylmethyl)-5-[1-(tetrahydrofuran-2-ylmethyl)-1H-pyrazol-4-yl]furan-2-carboxamide], the IC50 in assay [1] amounted to 70.8 nM; at NAMPT it was 0.194 nM; in the assay on PC3 cells, 9.42 nM.
On to `O=C(NCc1ccn2ccnc2c1)c1ccc(-c2cnn(CC3CCCCO3)c2)o1` (stereo not drawn) [Example 477, N-(imidazo[1,2-a]pyridin-7-ylmethyl)-5-[1-(tetrahydro-2H-pyran-2-ylmethyl)-1H-pyrazol-4-yl]furan-2-carboxamide], for which the values for the IC50 (in assay [1]; on NAMPT; with PC3 cells) were 72.9 nM, 0.235 nM and 3.21 nM, respectively.
As to `O=C(NCc1ccn2ccnc2c1)c1ccc(-c2cnn(CC3CCOC3)c2)o1` (stereo not drawn) [Example 478, N-(imidazo[1,2-a]pyridin-7-ylmethyl)-5-[1-(tetrahydrofuran-3-ylmethyl)-1H-pyrazol-4-yl]furan-2-carboxamide], the IC50 in assay [1] is 192 nM; at NAMPT, 0.24 nM; in the assay on PC3 cells, 31.2 nM.
For `O=C(NCc1ccn2ccnc2c1)c1ccc(-c2cnn(CC3CCCOC3)c2)o1` (stereo not drawn) [Example 479, N-(imidazo[1,2-a]pyridin-7-ylmethyl)-5-[1-(tetrahydro-2H-pyran-3-ylmethyl)-1H-pyrazol-4-yl]furan-2-carboxamide], the half-inhibitory concentration (IC50) was 63 nM in assay [1], 0.243 nM on NAMPT and 8.08 nM with PC3 cells.
Take `O=C(NCc1ccn2ccnc2c1)c1ccc(-c2cnn(CC3CCOCC3)c2)o1` [Example 480, N-(imidazo[1,2-a]pyridin-7-ylmethyl)-5-[1-(tetrahydro-2H-pyran-4-ylmethyl)-1H-pyrazol-4-yl]furan-2-carboxamide]: the half-maximal inhibitory concentration (IC50) is 181 nM in assay [1], 0.342 nM at NAMPT and 7.43 nM in the assay with PC3 cells.
For `O=C(NCc1ccn2ccnc2c1)c1ccc(-c2cnn(CC3CCC3)c2)o1` [Example 481, 5-[1-(cyclobutylmethyl)-1H-pyrazol-4-yl]-N-(imidazo[1,2-a]pyridin-7-ylmethyl)furan-2-carboxamide], the IC50 was 57.2 nM in assay [1], 0.176 nM at NAMPT and 5.79 nM with PC3 cells.
Take `CC1(Cn2cc(-c3ccc(C(=O)NCc4ccn5ccnc5c4)o3)cn2)COC1` [Example 482, N-(imidazo[1,2-a]pyridin-7-ylmethyl)-5-{1-[(3-methyloxetan-3-yl)methyl]-1H-pyrazol-4-yl}furan-2-carboxamide]: the half-maximal inhibitory concentration (IC50) in assay [1] is 76.3 nM; on NAMPT it was 0.259 nM; in the assay on PC3 cells it was 2.22 nM.
The matching figures for `CC(C)(O)Cn1cc(-c2ccc(C(=O)NCc3ccn4ccnc4c3)o2)cn1` [Example 483, 5-[1-(2-hydroxy-2-methylpropyl)-1H-pyrazol-4-yl]-N-(imidazo[1,2-a]pyridin-7-ylmethyl)furan-2-carboxamide]: 130 nM, 0.575 nM and 12.4 nM.
Take `O=C(NCc1ccn2ccnc2c1)c1ccc(C2CCN(C(=O)c3ccco3)CC2)cc1` [Example 484, 4-[1-(furan-2-ylcarbonyl)piperidin-4-yl]-N-(imidazo[1,2-a]pyridin-7-ylmethyl)benzamide]: the IC50 was 79.5 nM in assay [1], 0.19 nM at NAMPT and 9.59 nM in the assay with PC3 cells.
For `O=C(NCc1ccn2ccnc2c1)c1ccc(-c2cnn(CC3CCNCC3)c2)s1` [Example 485, N-(imidazo[1,2-a]pyridin-7-ylmethyl)-5-[1-(piperidin-4-ylmethyl)-1H-pyrazol-4-yl]thiophene-2-carboxamide], the half-inhibitory concentration (IC50) in assay [1] amounted to 95.6 nM; at NAMPT, 0.205 nM; in the assay with PC3 cells it was 34.5 nM.
Regarding `CC(C)Cn1cc(-c2ccc(NC(=O)NCc3ccn4ccnc4c3)cc2)cn1` [Example 486, 1-(imidazo[1,2-a]pyridin-7-ylmethyl)-3-{4-[1-(2-methylpropyl)-1H-pyrazol-4-yl]phenyl}urea], the half-inhibitory concentration (IC50) in assay [1] came out at 91.7 nM; at NAMPT, 0.232 nM; with PC3 cells, 23.3 nM.
Regarding `CCCn1cc(-c2ccc(NC(=O)NCc3ccn4ccnc4c3)cc2)cn1` [Example 487, 1-(imidazo[1,2-a]pyridin-7-ylmethyl)-3-[4-(1-propyl-1H-pyrazol-4-yl)phenyl]urea], the IC50 came out at 143 nM in assay [1], 0.334 nM at NAMPT and 83.3 nM in the assay on PC3 cells.
The corresponding values for `O=C(NCc1ccn2ccnc2c1)c1ccc(C2CCN(C(=O)c3cccs3)C2)cc1` (stereo not drawn) [Example 488, N-(imidazo[1,2-a]pyridin-7-ylmethyl)-4-[1-(thiophen-2-ylcarbonyl)pyrrolidin-3-yl]benzamide] are 138 nM, 0.544 nM and 98.3 nM.
With `O=C(NCc1ccn2ccnc2c1)c1ccc(Oc2ccccc2)cc1` [Example 489, N-(imidazo[1,2-a]pyridin-7-ylmethyl)-4-phenoxybenzamide], the results for the IC50 (in assay [1]; at NAMPT; in the assay with PC3 cells) were 1220 nM, 0.263 nM and > 10000 nM, respectively.
With `CC(C)C(=O)N1CC(c2ccc(C(=O)NCc3ccn4ccnc4c3)cc2)C1` [Example 490, N-(imidazo[1,2-a]pyridin-7-ylmethyl)-4-[1-(2-methylpropanoyl)azetidin-3-yl]benzamide], the half-maximal inhibitory concentration (IC50) in assay [1] was determined as 753 nM; on NAMPT, 0.267 nM; in the assay on PC3 cells it was 89.9 nM.
As for `CC(C)(C)OC(=O)N1CCC(c2ccc(C(=O)Nc3ccc4ncc(Cl)n4c3)cc2)CC1` [Example 491, tert-butyl 4-{4-[(3-chloroimidazo[1,2-a]pyridin-6-yl)carbamoyl]phenyl}piperidine-1-carboxylate], the IC50 in assay [1] was > 10000 nM; at NAMPT it was 1.9 nM; in the assay with PC3 cells it was 7830 nM.
